Reference: ChEMBL document CHEMBL4219198, “Peptidomimetic nitrile inhibitors of malarial protease falcipain-2 with high selectivity against human cathepsins” (Bioorg Med Chem Lett, 2018)
pEC50, pIC50: −log10 of the molar value.

Columns and labels:
[1] = molecular target: T1, Falcipain 2 (Plasmodium falciparum, UniProt Q9N6S8); assay: Inhibition of Plasmodium falciparum falcipain-2
T1 sequence (Q9N6S8 whole entry): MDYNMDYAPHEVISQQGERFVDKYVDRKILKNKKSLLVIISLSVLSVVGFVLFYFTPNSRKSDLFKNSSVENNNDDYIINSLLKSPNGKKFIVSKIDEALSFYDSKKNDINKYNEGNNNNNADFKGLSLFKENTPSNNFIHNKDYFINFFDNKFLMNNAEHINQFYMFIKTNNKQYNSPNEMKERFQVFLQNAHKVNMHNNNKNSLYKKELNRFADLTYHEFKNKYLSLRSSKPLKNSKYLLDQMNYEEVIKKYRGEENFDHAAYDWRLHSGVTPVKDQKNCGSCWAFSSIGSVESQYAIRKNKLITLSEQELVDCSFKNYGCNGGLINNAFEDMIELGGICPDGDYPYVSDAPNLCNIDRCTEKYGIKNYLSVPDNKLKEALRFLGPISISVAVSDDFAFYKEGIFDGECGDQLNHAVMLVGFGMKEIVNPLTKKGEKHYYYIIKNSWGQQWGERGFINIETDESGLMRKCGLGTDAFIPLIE

[2] = molecular target: Cathepsin B (Homo sapiens, UniProt P07858); assay: Inhibition of human cathepsin B
[3] = molecular target: T2, Cathepsin K (Homo sapiens, UniProt P43235); assay: Inhibition of human cathepsin K
T2 sequence (P43235 whole entry): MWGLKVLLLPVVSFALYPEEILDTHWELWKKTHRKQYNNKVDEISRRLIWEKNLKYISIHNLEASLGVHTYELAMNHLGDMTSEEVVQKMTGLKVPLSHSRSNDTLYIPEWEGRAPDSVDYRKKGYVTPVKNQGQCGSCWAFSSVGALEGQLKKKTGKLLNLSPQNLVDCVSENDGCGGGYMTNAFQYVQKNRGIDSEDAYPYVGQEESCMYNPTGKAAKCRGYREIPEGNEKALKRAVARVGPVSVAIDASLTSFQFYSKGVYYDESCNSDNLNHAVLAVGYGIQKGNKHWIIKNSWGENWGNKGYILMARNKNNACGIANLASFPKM

[4] = molecular target: Procathepsin L (Homo sapiens, UniProt P07711); assay: Inhibition of human cathepsin L
[5] = molecular target: Cathepsin S (Homo sapiens, UniProt P25774); assay: Inhibition of human cathepsin S
[6] = Selectivity ratio of IC50 for human cathepsin B to IC50 for Plasmodium falciparum falcipain-2
[7] = Selectivity ratio of IC50 for human cathepsin K to IC50 for Plasmodium falciparum falcipain-2
[8] = Selectivity ratio of IC50 for human cathepsin L to IC50 for Plasmodium falciparum falcipain-2
[9] = Selectivity ratio of IC50 for human cathepsin S to IC50 for Plasmodium falciparum falcipain-2
[10] = test system: Plasmodium falciparum; assay: Antimalarial activity against Plasmodium falciparum infected in human erythrocytes; format: functional, organism-based
[11] = Cytotoxicity against human HeLa cells assessed as reduction in cell viability; format: cell-based
[12] = Cytotoxicity against HUVEC assessed as reduction in cell viability; format: cell-based; details: human, HUVEC cells

Sequence of Procathepsin L (P07711 whole entry): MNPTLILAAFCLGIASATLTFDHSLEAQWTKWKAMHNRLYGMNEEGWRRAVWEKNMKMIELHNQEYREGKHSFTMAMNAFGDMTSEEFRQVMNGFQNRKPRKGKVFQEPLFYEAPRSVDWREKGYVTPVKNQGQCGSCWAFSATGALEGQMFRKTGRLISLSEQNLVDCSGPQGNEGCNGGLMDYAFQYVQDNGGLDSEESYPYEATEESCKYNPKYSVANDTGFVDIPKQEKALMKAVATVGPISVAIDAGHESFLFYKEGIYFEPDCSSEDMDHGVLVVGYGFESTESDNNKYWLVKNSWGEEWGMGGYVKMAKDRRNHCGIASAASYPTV
Sequence of Cathepsin S (P25774 whole entry): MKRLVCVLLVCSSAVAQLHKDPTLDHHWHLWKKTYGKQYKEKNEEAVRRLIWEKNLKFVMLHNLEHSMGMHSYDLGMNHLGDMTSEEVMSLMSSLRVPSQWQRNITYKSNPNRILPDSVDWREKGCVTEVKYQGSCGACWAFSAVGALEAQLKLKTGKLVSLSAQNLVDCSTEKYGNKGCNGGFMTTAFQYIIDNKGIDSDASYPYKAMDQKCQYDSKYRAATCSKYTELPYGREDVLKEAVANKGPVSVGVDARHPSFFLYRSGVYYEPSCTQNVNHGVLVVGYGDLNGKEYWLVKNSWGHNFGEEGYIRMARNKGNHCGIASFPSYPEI

SMILES	pIC50 [1]	pIC50 [2]	pIC50 [3]	pIC50 [4]	pIC50 [5]	Ratio IC50 [6]	Ratio IC50 [7]	Ratio IC50 [8]	Ratio IC50 [9]	pEC50 [10]	CC50 [11]	CC50 [12]
Cn1nc(C(F)(F)F)cc1-c1ccc(C(=O)N[C@@H](Cc2cccnc2)C(=O)NC2(C#N)CCS(=O)(=O)CC2)s1	8.20	–	–	–	–	> 793	107	679	9	–	–	–
CC(C)C[C@H](NC(=O)c1ccc(CN2CCN(C)CC2)cc1)C(=O)NC1(C#N)CCS(=O)(=O)CC1	7.24	5.63	9.00	8.40	9.00	–	–	–	–	5.57	–	–
N#CC1(NC(=O)[C@H](Cc2cccnc2)NC(=O)c2cccc(-n3cnnn3)c2)CC1	8.52	–	–	–	–	> 1670	1360	574	35	5.70	> 16 µM	> 16 µM
CN1CCN(Cc2ccc(C(=O)N[C@@H](Cc3cccnc3)C(=O)NC3(C#N)CCS(=O)(=O)CC3)s2)CC1	7.26	–	–	–	–	> 90	34	6	7	–	–	–
CC(C)C[C@H](NC(=O)c1ccc(-c2ccccc2)cc1)C(=O)NC1(C#N)CC1	7.57	5.76	8.89	6.31	7.07	–	–	–	–	–	–	–
N#CC1(NC(=O)[C@H](CCCCN)NC(=O)c2ccc(-c3ccccc3)cc2)CC1	< 5.30	5.90	< 5.30	< 5.30	< 5.30	–	–	–	–	–	–	–
N#CC1(NC(=O)[C@H](CCCCCN)NC(=O)c2ccc(-c3ccccc3)cc2)CC1	< 5.30	–	–	–	–	–	–	–	–	–	–	–
CC(C)C[C@H](NC(=O)c1ccc(-c2ccccc2)cc1)C(=O)NC1(C#N)CCS(=O)(=O)CC1	8.10	5.60	9.96	7.00	8.96	–	–	–	–	< 4.60	–	–
N#CC1(NC(=O)[C@H](Cc2ccc(O[C@@H]3CCNC3)cc2)NC(=O)c2ccc(-c3ccccc3)cc2)CC1	5.80	5.65	5.57	6.52	5.45	–	–	–	–	–	–	–
N#CC1(NC(=O)[C@H](Cc2cccnc2)NC(=O)c2cccc(-c3cn[nH]c3)c2)CC1	8.92	–	–	–	–	> 4170	2350	349	42	5.70	> 16 µM	> 16 µM

Now from value to compound, other results behind:

pIC50 [1]	pIC50 [2]	pIC50 [3]	pIC50 [4]	pIC50 [5]	Ratio IC50 [6]	Ratio IC50 [7]	Ratio IC50 [8]	Ratio IC50 [9]	pEC50 [10]	SMILES	CC50 [11]	CC50 [12]
6.64	< 5.30	< 5.30	5.37	6.72	–	–	–	–	–	N#CC1(NC(=O)C(Cc2ccc(Cl)nc2)NC(=O)c2ccc(-c3ccccc3)cc2)CC1 (centres undefined)	–	–
6.75	5.39	< 5.30	5.58	6.71	–	–	–	–	–	COc1ccc(CC(NC(=O)c2ccc(-c3ccccc3)cc2)C(=O)NC2(C#N)CC2)cn1 (centres undefined)	–	–
6.86	5.63	6.36	< 5.30	5.63	–	–	–	–	–	N#CC1(NC(=O)[C@H](Cc2cscn2)NC(=O)c2ccc(-c3ccccc3)cc2)CC1	–	–
< 5.30	< 5.30	< 5.30	6.48	7.74	–	–	–	–	–	N#CC1(NC(=O)[C@H](Cc2nc3ccccc3s2)NC(=O)c2ccc(-c3ccccc3)cc2)CC1	–	–
